Source: patent US11484484B2, “Composition for alleviating skin barrier dysfunction” (LG HOUSEHOLD & HEALTH CARE LTD., priority 2018, dated 2022)
Entries after “also recorded” stand apart in the source; their conditions may differ.

Legend:
[1] = system: HaCaT cells introduced with the GFP-LC3 vector; experiment: Screening for autophagy activation: GFP-LC3 puncta quantification; assay type: cell-based, human; conditions: for proportion of cells with increased GFP-LC3 puncta vesicles: fluorescence microscopy
Procedure: A GFP (green fluorescence protein)-conjugated microtubule-binding protein 1 light chain 3 (LC3) expression vector (Cell Biolabs, USA) was introduced into HaCaT cells using Lipofectamine 2000 (Invitrogen, USA), which is a gene transfer reagent, and the resultant was cultured for 12 hours in a condition containing 10% FBS and then treated with candidate compounds expected to promote autophagy, which was selected from a library of single compounds derived from natural substances, at each concentration in the medium. Subsequently, the evaluation was performed by fluorescence microscopy (Leica Microsystems, USA). In order to quantify the induction of autophagy, 100 GFP-positive cells in which puncta autophagosomes were formed (punctae=5) were counted using fluorescence microscopy. In order to improve the barrier function by promoting epidermal differentiation through the activation of autophagy, which is reduced due to aging or external stimuli, a search was conducted starting from a library of single compounds derived from natural substances for those that promote autophagic activity of keratinocytes. Specifically, as in the method of Example 3, candidate compounds expected to promote autophagy were treated to HaCaT cells introduced with the GFP-LC3 vector. Thereafter, the number of cells with increased GFP-LC3 puncta vesicles in the cytoplasm was increased as GFP was conjugated to LC3, which was converted into a membrane-bound form when autophagy was induced in each cell, was compared.

[2] = system: reconstructed human epidermis model (Neoderm-E); experiment: LC3-II production in 3D artificial skin model; assay type: cell-based; conditions: 1% cream formulation, after 24 hours
Procedure: (§1) A reconstructed human epidermis model (Neoderm-E, Tego Science, Korea) was transferred to a 6-well plate and stabilized in 2 mL of a growth medium (Tego Science, Korea) for 24 hours, and the cream-type hydroxycinnamic acid, isoamyl acetate, and betaine were applied to the artificial skin at each concentration. After culturing for 24 hours, the hydroxycinnamic acid, isoamyl acetate, and betaine cream applied on the artificial skin were washed with phosphate buffer saline (PBS), and then the tissue was disrupted using a RIPA buffer (50 mM Tris-HCl, pH 7.4, 150 mM NaCl, 1% NP-40) containing Protease Inhibitor Cocktails (ThermoFisher Scientific, USA) by sonication. The tissue-extracted proteins were analyzed for the autophagic activity of keratinocytes in the tissue by western blotting analysis. 1% creams of hydroxycinnamic acid, isoamyl acetate, and betaine were applied on the artificial skin, followed by H&E staining after 1 week to confirm the increase in thickness of the epidermis.
In order to confirm whether the differentiation in the epidermis is promoted by the effect of promoting autophagy by way of betaine, hydroxycinnamic acid, and isoamyl acetate, a 3D artificial skin model was used as in Example 5. […] After 24 hours, the degree of LC3-II production was measured through western blotting analysis to determine whether autophagy in the epidermis was promoted.

[3] = system: reconstructed human epidermis model (Neoderm-E); experiment: Epidermal thickness in 3D artificial skin model; assay type: cell-based; conditions: 1% cream formulation; for Increase relative to Control: epidermal thickness ratio
Procedure: as §1
Next, the cream formulations of 1% betaine, 1% hydroxycinnamic acid, and 1% isoamyl acetate were applied to the artificial skin, and changes in the thickness of the epidermis were measured after […] staining of the artificial skin tissue.

[4] = general description of the substance; cited from earlier work
HaCaT cells = assay type: cell-based; conditions: 10 μg/mL, 50 μg/mL and 100 μg/mL
LC3-II = LC3-II production by western blotting in keratinocytes; assay type: cell-based, human; conditions: HaCaT cells
Description: (§2) HaCaT cells were inoculated into a 60 mm plate at a concentration of 8×10^5 cells and independently treated with hydroxycinnamic acid, isoamyl acetate, and betaine the next day, and then the cells were eluted with a 5× lysis buffer to obtain proteins. Cell debris was removed by centrifugation and quantified using a BCA protein assay kit (Pierce, USA). The cell-extracted proteins were isolated using a 4%-15% SDS-PAGE gel (Bio-Rad, USA) and transferred to a nitrocellulose membrane (Life Technologies, New Zealand). The cells were then blocked with a TBST buffer containing 3% BSA for 1 hour and thereupon reacted in a buffer solution containing primary antibodies at 4° C. for 1 day. The membrane was washed with TBST, reacted with peroxidase-conjugated secondary antibodies, and then colored using enhanced chemiluminescence (Amersham, UK), and the immune-reactive bands were confirmed with the Fusion FX 5 image system (Vilber Lourmat, France).
The cytotoxicity of betaine on keratinocytes was confirmed, and the results of Experimental Example 1 were confirmed by the western blotting analysis of Example 4 to determine the degree of production of LC3-II converted as it entered into the double membranes of the autophagosomes. […] Additionally, the cells were treated with 50 μg/mL betaine and the amount of LC3-II conversion per hour was observed.

LC3-II, p62/SQSTM1 = experiment: Autophagosome synthesis mechanism: co-treatment with bafilomycin A1, LC3-II and p62 western blotting; assay type: cell-based, human
Description: as §2
Therefore, in order to investigate a mechanism by which the autophagosomes are increased by way of betaine treatment, the cells were treated with bafilomycin A1 (Baf. A1), which is known as a lysosomal activity inhibitor, together with betaine, and the degree of LC3-II production was confirmed by western blotting analysis.

AKT-mTOR-S6 pathway = experiment: Phosphorylation of AKT-mTOR-S6 pathway by western blotting; assay type: cell-based, human; conditions: HaCaT cells
Description: as §2
In previous studies, betaine—homocysteine methyltransferase (BHMT) has been reported to reduce the amount of homocysteine in a betaine-dependent manner. In one study, homocysteine was reported to promote the activity of mTORC1, an enzyme that inhibits autophagy. Thus, in order to find a mechanism by which autophagy is promoted by betaine, an experiment was conducted to identify related upstream signaling factors. […]

Row | Structure (SMILES) | proportion of cells with increased GFP-LC3 puncta vesicles [1] | autophagy (degree of LC3-II production) in the epidermis [2] | Thickness of Epidermis [3] | epidermal thickness increase compared to the control group [3] | Increase relative to Control [3] | solubility [4] | number of cells with increased GFP-LC3 puncta vesicles, increase compared to the untreated group [1] | cytotoxicity (HaCaT cells) | amount of LC3-II conversion, from 12 hours (LC3-II; 50 μg/mL, 12 hours) | amount of LC3-II conversion, after 24 hours (LC3-II; 50 μg/mL, 24 hours) | amount of LC3-II conversion, until 6 hours (LC3-II; 50 μg/mL, until 6 hours) | amount of LC3-II by concentration (LC3-II; 10, 50, 100 μg/mL, western blotting) | amount of p62/SQSTM1 (p62) protein (LC3-II, p62/SQSTM1; betaine treatment, western blotting) | amount of LC3-II with bafilomycin A1 together with betaine compared to betaine alone (LC3-II, p62/SQSTM1; co-treatment with lysosomal activity inhibitor bafilomycin A1) | mTOR signals (degree of phosphorylation of the AKT-mTOR-S6 pathway) (AKT-mTOR-S6 pathway)
1 | CC(=O)OCCC(C)C [isoamyl acetate] | 16.4% | autophagy was increased | 85 μm | 37% | 1.37 | not well soluble in water, but soluble in alcohol and organic solvents | – | – | – | – | – | – | – | – | –
2 | C[N+](C)(C)CC(=O)[O-] [betaine, trimethylglycine] | 25% | autophagy was increased | 74 μm | 19% | 1.19 | – | 18.75% | no cytotoxicity was observed | the amount of conversion increased | the highest conversion was observed; also recorded: conversion mostly occurred | a significant increase was not observed | increased as the concentration increased | reduced; also recorded: decrease | further increased | not possible to observe a significant difference; also recorded: no significant difference
